Assay results taken from US8399689B2, “Chrysophaentin antimicrobial compounds that inhibit FtsZ protein” (The United States of America, as represented by the …, priority 2010, dated 2013).
In brackets after ≈: the same amount, converted by molar mass.

Experiments:
[1] = test system: multidrug-resistant S. aureus (MDRSA, ATCC BAA-44); experiment: Microbroth dilution assay, MDRSA; assay type: cell-based; conditions: Staphylococcus aureus, ATCCBAA44
Protocol: Compounds 1-8 were tested for antimicrobial activity against Staphylococcus aureus (SA, ATCC 25923), methicillin-resistant S. aureus (MRSA, ATCC BAA-41), multidrug-resistant S. aureus (MDRSA, ATCC BAA-44), Enterococcus faecium (EF, ATCC 49032), vancomycin-resistant E. Faecium (VRE, ATCC 700221), and Bacillus subtilis (ATCC 49343) using a modified disk diffusion assay and microbroth liquid dilution assays. For disk diffusion assays, agar plates seeded with suspensions of bacteria were prepared by adding 500 μL of a 24 h culture of bacteria to 100 mL of autoclaved Mueller Hinton II agar and cooled to 55° C. Seeded liquid agar (10 mL) was transferred immediately to square Petri dishes and allowed to cool for 1 h. Control drugs used for each microorganism included kanamycin (50 μg) for S. aureus, and nitrofurantoin (25 μg) for MRSA. Following incubation at 37° C. for 18 h, zones of inhibition were measured. MICso values for compounds 1 and 4-8 were determined using a microbroth dilution assay outlined in the Clinical and Laboratory Standards Institute methods for susceptibility tests for bacteria that grow aerobically. […] Plates were incubated at 37° C. overnight and read at absorbance 600 nm on a Molecular Devices plate reader. […]

[2] = biological target: recombinant E. coli FtsZ (Escherichia coli, UniProt P0A9A6); experiment: Saturation Transfer Difference (STD) NMR binding to FtsZ
Chain of recombinant E. coli FtsZ (P0A9A6 whole entry): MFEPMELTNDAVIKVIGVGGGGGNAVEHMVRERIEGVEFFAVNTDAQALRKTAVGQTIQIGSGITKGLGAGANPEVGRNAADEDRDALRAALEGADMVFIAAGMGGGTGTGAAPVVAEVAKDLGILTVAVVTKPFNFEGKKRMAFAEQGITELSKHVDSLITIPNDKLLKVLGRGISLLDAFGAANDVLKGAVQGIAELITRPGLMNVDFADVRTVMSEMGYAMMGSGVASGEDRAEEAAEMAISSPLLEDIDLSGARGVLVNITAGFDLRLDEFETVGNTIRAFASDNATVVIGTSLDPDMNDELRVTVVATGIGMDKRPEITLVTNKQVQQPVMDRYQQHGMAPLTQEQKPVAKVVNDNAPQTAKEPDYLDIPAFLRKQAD
Protocol: Saturation transfer difference (STD) NMR experiments were recorded with the carrier set at −1 or 12 ppm for on-resonance irradiation and at 40 ppm for off-resonance irradiation. […] Selective protein saturation (2 s) was accomplished by using a train of 50 ms Gauss-shaped pulses, each separated by a 1 ms delay, at an experimentally determined optimal power (49 dB on our probe); a T1ρ filter (30 ms) was incorporated to suppress protein resonances. Experiments were recorded using a minimum of 1024 scans and 32K points. On- and off-resonance spectra were processed independently, and subtracted to provide a difference spectrum.
Saturation Transfer Difference (STD) NMR is an NMR technique that provides atomic level detail of the epitope used by a small molecule ligand to bind its macromolecular (protein) receptor. […] Spectra of were recorded at 298 K with the carrier set at −1 or 12 ppm for on-resonance irradiation and 50 ppm for off-resonance irradiation. Selective protein saturation (duration ranging from 1 to 5 s) was accomplished using a train of 50 ms Gauss-shaped pulses, each separated by a 1 ms delay, at an experimentally determined optimal power (49 dB); a T1ρ filter (30 ms) was incorporated to suppress protein resonances. A minimum of 512 scans and 4000 points were used to ensure high quality data with good signal-to-noise. On- and off-resonance spectra were processed independently, and subtracted to provide a difference spectrum. […] STD enhancements were measured by integrating difference spectra where the peaks showing the strongest enhancements relative to the control spectra were used to normalize all non-overlapped peaks in the difference spectra.

[3] = 100-fold excess of compound over FtsZ

## Oc1cc(O)c2c(c1)C/C(Cl)=C\Cc1cc(c(Cl)cc1O)Oc1c(O)cc(cc1O)C/C(Cl)=C\Cc1cc(c(Cl)cc1O)O2 [Compound 1, chrysophaentin 1]
[1]
  MIC50: 1.3 ± 0.4 µg/mL (≈ 1.92 µM)
[2]; [3]
  STD NMR combined enhancement, overlapped protons H-6′ and H-8: ~50%
  STD NMR enhancement, proton H-3: 100%
  STD NMR enhancement, proton H-3′: 98%
  STD NMR enhancement, proton H-12: 100%
  STD NMR enhancement, proton H-14: 100%
[2]; as restated with the docked model
  STD NMR enhancement, aromatic protons H-6 and H-6′: ~50%
